Measured values as given in ChEMBL document CHEMBL1201862, “PubChem BioAssay data set” (2004).
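Results reflect a 48-hour exposure of cells in 96-well plates to compound at five concentrations. GI50 = concentration required for 50% inhibition of growth.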 Activity calls are given as the source filed them. Rule as the data show it: active = GI50 up to about 1.1 µM and inactive = higher.

Assays:
Experiment in all cases: growth of human tumour cells (NCI), 48 h
HT-29 = system: HT-29
SF-295 = system: SF-295
HCT-15 = system: HCT-15
HCC 2998 = system: HCC 2998
SF-268 = system: SF-268
RXF 393 = system: RXF 393
SNB-19 = system: SNB-19
LOX IMVI = system: LOX IMVI
EKVX = system: EKVX
KM12 = system: KM12
NCI-H460 = system: NCI-H460
UACC-62 = system: UACC-62
OVCAR-4 = system: OVCAR-4
MDA-MB-231 = system: MDA-MB-231
IGROV-1 = system: IGROV-1
UACC-257 = system: UACC-257
SN12C = system: SN12C
HOP-62 = system: HOP-62
SNB-75 = system: SNB-75
SK-OV-3 = system: SK-OV-3

Row | SMILES | GI50 (HT-29) | GI50 (SF-295) | GI50 (HCT-15) | GI50 (HCC 2998) | GI50 (SF-268) | GI50 (RXF 393) | GI50 (SNB-19) | GI50 (LOX IMVI) | GI50 (EKVX) | GI50 (KM12) | GI50 (NCI-H460) | GI50 (UACC-62) | GI50 (OVCAR-4) | GI50 (MDA-MB-231) | GI50 (IGROV-1) | GI50 (UACC-257) | GI50 (SN12C) | GI50 (HOP-62) | GI50 (SNB-75) | GI50 (SK-OV-3)
1 | CC1(C)S[C@@H]2[C@H](NC(=O)C3(N)CCCCC3)C(=O)N2[C@H]1C(=O)O [CYCLACILLIN] | > 100 µM (inactive) | > 100 µM (inactive) | > 100 µM | > 100 µM (inactive) | > 100 µM (inactive) | > 100 µM (inactive) | > 100 µM (inactive) | > 100 µM (inactive) | > 100 µM (inactive) | > 100 µM (inactive) | > 100 µM (inactive) | > 100 µM (inactive) | > 100 µM (inactive) | > 100 µM (inactive) | > 100 µM (inactive) | > 100 µM (inactive) | > 100 µM (inactive) | > 100 µM (inactive) | > 100 µM (inactive) | > 100 µM (inactive)
2 | C/C(=N\c1cc(Cl)cc(Cl)c1)c1ccncc1 | > 100 µM (inactive) | > 100 µM (inactive) | > 100 µM | > 100 µM (inactive) | > 100 µM (inactive) | > 100 µM (inactive) | > 100 µM (inactive) | > 100 µM (inactive) | > 100 µM (inactive) | > 100 µM (inactive) | > 100 µM (inactive) | 15 µM (inactive) | > 100 µM (inactive) | > 100 µM (inactive) | > 100 µM (inactive) | > 100 µM (inactive) | > 100 µM (inactive) | > 100 µM (inactive) | > 100 µM (inactive) | 29.9 µM (inactive)
3 | O=C(O)CCN(CCC(=O)O)c1ccc(/C=C2\SC(=S)NC2=O)cc1 | > 100 µM (inactive) | > 100 µM (inactive) | > 100 µM | > 100 µM (inactive) | > 100 µM (inactive) | > 100 µM (inactive) | > 100 µM (inactive) | > 100 µM (inactive) | > 100 µM (inactive) | > 100 µM (inactive) | > 100 µM (inactive) | > 100 µM (inactive) | > 100 µM (inactive) | > 100 µM (inactive) | > 100 µM (inactive) | > 100 µM (inactive) | > 100 µM (inactive) | > 100 µM (inactive) | > 100 µM (inactive) | > 100 µM (inactive)
4 | COC(=O)[C@H](C)NC(=O)C1(CNC(=O)[C@H](C)NC(=O)OC(C)(C)C)Cc2ccccc2-c2ccccc2C1 | 17.4 µM (inactive) | 21.4 µM (inactive) | 15.7 µM | 24.9 µM (inactive) | 19.6 µM (inactive) | 25.5 µM (inactive) | > 56.9 µM (inactive) | 3.85 µM (inactive) | 19.3 µM (inactive) | 16.1 µM (inactive) | 19.7 µM (inactive) | 16.7 µM (inactive) | 21 µM (inactive) | 17.9 µM (inactive) | 16.3 µM (inactive) | > 48.2 µM (inactive) | 17.7 µM (inactive) | 27 µM (inactive) | 23.4 µM (inactive) | 30.5 µM (inactive)
5 | Cc1ccc(N(C)S(=O)(=O)c2ccccc2)cc1 | > 100 µM (inactive) | > 100 µM (inactive) | > 100 µM | > 100 µM (inactive) | > 100 µM (inactive) | 29.5 µM (inactive) | > 100 µM (inactive) | > 100 µM (inactive) | 97.9 µM (inactive) | > 100 µM (inactive) | 87.9 µM (inactive) | 84.5 µM (inactive) | > 100 µM (inactive) | 88.3 µM (inactive) | > 100 µM (inactive) | > 100 µM (inactive) | > 100 µM (inactive) | > 100 µM (inactive) | > 100 µM (inactive) | > 100 µM (inactive)
